Experiments:
UT-B = target: T1, UT-B (Homo sapiens, UniProt Q13336); assay: RBC lysis assay, human RBCs loaded with acetamide; type: cell-based; conditions: 0.7 mM phloretin; control approximately 1.6 M
T1 construct: the indicator cells are red blood cells that endogenously express the UT-B urea transporter; endogenous in cells; host or cells: human red blood cells (whole venous blood, single donor)
T1 sequence (Q13336 1-389): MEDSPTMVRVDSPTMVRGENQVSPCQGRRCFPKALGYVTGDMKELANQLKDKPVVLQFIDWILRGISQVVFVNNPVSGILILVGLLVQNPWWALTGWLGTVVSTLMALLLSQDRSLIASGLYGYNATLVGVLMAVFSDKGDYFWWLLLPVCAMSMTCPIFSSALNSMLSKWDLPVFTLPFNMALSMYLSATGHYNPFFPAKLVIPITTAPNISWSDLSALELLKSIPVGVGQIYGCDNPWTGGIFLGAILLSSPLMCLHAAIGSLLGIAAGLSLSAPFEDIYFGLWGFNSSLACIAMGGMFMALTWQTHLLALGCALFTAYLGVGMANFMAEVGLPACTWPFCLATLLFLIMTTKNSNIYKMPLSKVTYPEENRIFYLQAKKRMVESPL

rat UT-A1 = target: T2, rat UT-A1 (Rattus norvegicus, UniProt Q62668); assay: UT-A1-mediated urea flux across stably transfected MDCK cell layers; type: cell-based; conditions: 10 μM forskolin; 0.7 mM phloretin
T2 construct: expressed in transfected cells
T2 sequence (Q62668 1-929): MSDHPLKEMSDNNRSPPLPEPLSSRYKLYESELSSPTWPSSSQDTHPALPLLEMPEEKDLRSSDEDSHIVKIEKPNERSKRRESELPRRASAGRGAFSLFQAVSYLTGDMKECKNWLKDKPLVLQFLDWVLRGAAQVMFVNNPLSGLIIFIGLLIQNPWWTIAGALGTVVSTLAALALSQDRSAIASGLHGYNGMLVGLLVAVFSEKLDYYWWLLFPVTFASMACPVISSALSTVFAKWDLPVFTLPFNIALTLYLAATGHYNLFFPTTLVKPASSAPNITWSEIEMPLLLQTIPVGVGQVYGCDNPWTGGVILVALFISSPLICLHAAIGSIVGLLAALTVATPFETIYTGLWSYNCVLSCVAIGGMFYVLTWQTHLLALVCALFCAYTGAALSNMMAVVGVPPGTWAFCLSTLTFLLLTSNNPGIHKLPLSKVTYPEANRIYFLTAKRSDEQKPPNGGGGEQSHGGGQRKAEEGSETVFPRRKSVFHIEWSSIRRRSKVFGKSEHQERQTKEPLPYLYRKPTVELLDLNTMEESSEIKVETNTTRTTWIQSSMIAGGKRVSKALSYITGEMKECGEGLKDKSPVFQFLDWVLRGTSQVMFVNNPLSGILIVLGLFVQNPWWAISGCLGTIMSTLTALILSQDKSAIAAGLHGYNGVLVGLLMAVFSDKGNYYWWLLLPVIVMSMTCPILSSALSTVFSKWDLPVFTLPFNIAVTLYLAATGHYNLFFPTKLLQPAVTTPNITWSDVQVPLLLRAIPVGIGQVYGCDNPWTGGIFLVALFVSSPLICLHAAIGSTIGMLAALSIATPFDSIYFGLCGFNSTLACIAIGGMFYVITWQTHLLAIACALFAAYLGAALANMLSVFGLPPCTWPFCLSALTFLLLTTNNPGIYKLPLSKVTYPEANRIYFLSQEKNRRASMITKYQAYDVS
Protocol: Concentration-inhibition studies were performed to study the effect of the active mouse UT-B inhibitors on urea transport by UT-A. The amino acid sequences of UT-B and UT-A urea transporter isoforms share significant similarity. The cells used in these studies were MDCK cells that expressed rat UT-A1. MDCK-UT-A1-expressing cells were grown on collagen-coated porous filters until they were electrically tight, at which point 15 mM urea was introduced into buffer bathing the basolateral cell surface. […]
UT-A1-facilitated urea flux in the basolateral-to-apical direction across unstimulated and forskolin-stimulated MDCK-UT-A1 cell layers was measured in response to a 15-mM urea gradient. […] Five μL samples of apical fluid were collected at specified times during incubation at 37° C., and urea concentration was determined using a commercial kit based on chromogenic urea complexation at 520-nm wavelength (Quantichrom™ Urea Assay Kit, BioAssay Systems, Hayward, Calif.). […] Aforsk, and Aphlor were averaged absorbance values (at 520 nm) for cultures treated with forskolin and forskolin+phloretin, respectively, and Atest were values from cultures treated with forskolin+ test compound.

RBCs from wild-type mice = assay: Osmotic water permeability by stopped-flow light scattering, RBCs from wild-type mice; type: cell-based, mouse
Protocol: RBC urea and water permeabilities were assayed by stopped-flow light scattering using a Hi-Tech Sf-51 instrument (Wiltshire, UK). For measurement of urea permeability, dilutions of whole blood (human or mouse; see Example 1) in PBS (hematocrit: approximately 0.5%) were incubated with test compounds for 5 min and then subjected to a 250-mM inwardly directed gradient of urea. After an initial osmotic shrinking phase, the kinetics of increasing cell volume caused by urea influx were measured as the time-course of 90° scattered light intensity at 530 nm, with increasing cell volume resulting in reduced scattered light intensity. As a positive control, 0.7 mM phloretin was added to the RBC suspension prior to stopped-flow experiments. Measurements of water permeability were carried out similarly, with sucrose (cell-impermeant) used instead of urea to establish a 250-mM osmotic gradient. As a positive control, HgCl2 (0.3 mM) was added to the RBC suspension prior to stopped-flow measurements. Osmotic water permeability coefficients (Pf) were computed from light scattering data as described (van Hoek et al., J. Biol. Chem. 267:18267-69 (1992)).
This example describes chemical knock-out of UT-B by UT-B inhibitors in RBCs and the effect on UT-B-facilitated water transport. […] Osmotic water permeability was measured by stopped-flow light scattering in RBCs from wild-type and AQP1-null mice as shown in FIG. 8A. […] AQP1-null RBCs had greater than 5-fold reduced Pf compared to wild-type RBCs.

urea transporter (UT) = conditions: previously available UT inhibitors; cited from earlier work

In the case of O=C(CCc1ccc(O)cc1)c1c(O)cc(O)cc1O [phloretin, reference compound], the “acetamide concentration at fifty percent lysis” value (UT-B) is reported as “approximately 1.1 M”, the “effect on UT-A1-facilitated urea transport” value (rat UT-A1) is reported as “inhibited” and the “effect on water transport” value (RBCs from wild-type mice) is reported as “little effect”. The “change in Pf” value (RBCs from wild-type mice; 0.7 mM) was “small but significant reduction” and the “concentration exhibiting activity as UT inhibitor” value (urea transporter (UT)) was > 0.5 mM.

Source: patent US9316633B2, “Methods for identifying inhibitors of solute transporters” (The Regents of the University of California, priority 2006, dated 2016)
